Measured values as given in ChEMBL document CHEMBL4665624, “Synthesis of 5-(4-(1H-phenanthro[9,10-d]imidazol-2-yl)benzylidene)thiazolidine-2,4-dione as promising DNA and serum albumin-binding agents and evaluation of antitumor activity” (Eur J Med Chem, 2019).

Key:
[1] = test system: CCRF-CEM; test: Antitumor activity against human CCRF-CEM cells assessed as cell growth inhibition at 10 uM incubated for 48 hrs by sulforhodamine B assay; format: functional; conditions: read-out: GI
[2] = test system: HL-60(TB); test: Antitumor activity against human HL-60(TB) cells assessed as cell growth inhibition at 10 uM incubated for 48 hrs by sulforhodamine B assay; format: functional; conditions: read-out: GI
[3] = test system: K562; test: Antitumor activity against human K562 cells assessed as cell growth inhibition at 10 uM incubated for 48 hrs by sulforhodamine B assay; format: functional; conditions: read-out: GI
[4] = test system: MOLT-4; test: Antitumor activity against human MOLT4 cells assessed as cell growth inhibition at 10 uM incubated for 48 hrs by sulforhodamine B assay; format: functional; conditions: read-out: GI
[5] = test system: RPMI-8226; test: Antitumor activity against human RPMI8226 cells assessed as cell growth inhibition at 10 uM incubated for 48 hrs by sulforhodamine B assay; format: functional; conditions: read-out: GI
[6] = test system: SR; test: Antitumor activity against human SR cells assessed as cell growth inhibition at 10 uM incubated for 48 hrs by sulforhodamine B assay; format: functional; conditions: read-out: GI
[7] = test system: EKVX; test: Antitumor activity against human EKVX cells assessed as cell growth inhibition at 10 uM incubated for 48 hrs by sulforhodamine B assay; format: functional; conditions: read-out: GI
[8] = test system: HOP-92; test: Antitumor activity against human HOP92 cells assessed as cell growth inhibition at 10 uM incubated for 48 hrs by sulforhodamine B assay; format: functional; conditions: read-out: GI
[9] = test system: NCI-H226; test: Antitumor activity against human NCI-H226 assessed as cell growth inhibition at 10 uM incubated for 48 hrs by sulforhodamine B assay; format: functional; conditions: read-out: GI
[10] = test system: NCI-H23; test: Antitumor activity against human NCI-H23 cells assessed as cell growth inhibition at 10 uM incubated for 48 hrs by sulforhodamine B assay; format: functional; conditions: read-out: GI
[11] = test system: NCI-H460; test: Antitumor activity against human NCI-H460 assessed as cell growth inhibition at 10 uM incubated for 48 hrs by sulforhodamine B assay; format: functional; conditions: read-out: GI
[12] = test system: NCI-H522; test: Antitumor activity against human NCI-H522 cells assessed as cell growth inhibition at 10 uM incubated for 48 hrs by sulforhodamine B assay; format: functional; conditions: read-out: GI
[13] = test system: COLO 205; test: Antitumor activity against human COLO205 cells assessed as cell growth inhibition at 10 uM incubated for 48 hrs by sulforhodamine B assay; format: functional; conditions: read-out: GI
[14] = test system: HCC 2998; test: Antitumor activity against human HCC2998 cells assessed as cell growth inhibition at 10 uM incubated for 48 hrs by sulforhodamine B assay; format: functional; conditions: read-out: GI
[15] = test system: HCT-116; test: Antitumor activity against human HCT116 cells assessed as cell growth inhibition at 10 uM incubated for 48 hrs by sulforhodamine B assay; format: functional; conditions: read-out: GI
[16] = test system: HCT-15; test: Antitumor activity against human HCT15 cells assessed as cell growth inhibition at 10 uM incubated for 48 hrs by sulforhodamine B assay; format: functional; conditions: read-out: GI
[17] = test system: HT-29; test: Antitumor activity against human HT-29 cells assessed as cell growth inhibition at 10 uM incubated for 48 hrs by sulforhodamine B assay; format: functional; conditions: read-out: GI
[18] = test system: KM12; test: Antitumor activity against human KM12 cells assessed as cell growth inhibition at 10 uM incubated for 48 hrs by sulforhodamine B assay; format: functional; conditions: read-out: GI
[19] = test system: SF-268; test: Antitumor activity against human SF268 cells assessed as cell growth inhibition at 10 uM incubated for 48 hrs by sulforhodamine B assay; format: functional; conditions: read-out: GI
[20] = test system: SF-295; test: Antitumor activity against human SF295 cells assessed as cell growth inhibition at 10 uM incubated for 48 hrs by sulforhodamine B assay; format: functional; conditions: read-out: GI
[21] = test system: SNB-19; test: Antitumor activity against human SNB-19 cells assessed as cell growth inhibition at 10 uM incubated for 48 hrs by sulforhodamine B assay; format: functional; conditions: read-out: GI
[22] = test system: SNB-75; test: Antitumor activity against human SNB-75 cells assessed as cell growth inhibition at 10 uM incubated for 48 hrs by sulforhodamine B assay; format: functional; conditions: read-out: GI
[23] = test system: U-251; test: Antitumor activity against human U251 cells assessed as cell growth inhibition at 10 uM incubated for 48 hrs by sulforhodamine B assay; format: functional; conditions: read-out: GI
[24] = test system: LOX IMVI; test: Antitumor activity against human LOX IMVI cells assessed as cell growth inhibition at 10 uM incubated for 48 hrs by sulforhodamine B assay; format: functional; conditions: read-out: GI
[25] = test system: Malme-3M; test: Antitumor activity against human MALME-3M cells assessed as cell growth inhibition at 10 uM incubated for 48 hrs by sulforhodamine B assay; format: functional; conditions: read-out: GI
[26] = test system: M14; test: Antitumor activity against human M14 cells assessed as cell growth inhibition at 10 uM incubated for 48 hrs by sulforhodamine B assay; format: functional; conditions: read-out: GI
[27] = test system: MDA-MB-435; test: Antitumor activity against human MDA-MB-435 cells assessed as cell growth inhibition at 10 uM incubated for 48 hrs by sulforhodamine B assay; format: functional; conditions: read-out: GI
[28] = test system: SK-MEL-28; test: Antitumor activity against human SK-MEL-28 cells assessed as cell growth inhibition at 10 uM incubated for 48 hrs by sulforhodamine B assay; format: functional; conditions: read-out: GI
[29] = test system: UACC-62; test: Antitumor activity against human UACC-62 cells assessed as cell growth inhibition at 10 uM incubated for 48 hrs by sulforhodamine B assay; format: functional; conditions: read-out: GI
[30] = test system: IGROV-1; test: Antitumor activity against human IGROV1 cells assessed as cell growth inhibition at 10 uM incubated for 48 hrs by sulforhodamine B assay; format: functional; conditions: read-out: GI
[31] = test system: OVCAR-3; test: Antitumor activity against human OVCAR-3 cells assessed as cell growth inhibition at 10 uM incubated for 48 hrs by sulforhodamine B assay; format: functional; conditions: read-out: GI
[32] = test system: OVCAR-4; test: Antitumor activity against human OVCAR-4 cells assessed as cell growth inhibition at 10 uM incubated for 48 hrs by sulforhodamine B assay; format: functional; conditions: read-out: GI
[33] = test system: OVCAR-8; test: Antitumor activity against human OVCAR-8 cells assessed as cell growth inhibition at 10 uM incubated for 48 hrs by sulforhodamine B assay; format: functional; conditions: read-out: GI
[34] = test system: NCI/ADR-RES; test: Antitumor activity against human NCI/ADR-RES cells assessed as cell growth inhibition at 10 uM incubated for 48 hrs by sulforhodamine B assay; format: functional; conditions: read-out: GI
[35] = test system: SK-OV-3; test: Antitumor activity against human SK-OV-3 cells assessed as cell growth inhibition at 10 uM incubated for 48 hrs by sulforhodamine B assay; format: functional; conditions: read-out: GI
[36] = test system: 786-0; test: Antitumor activity against human 786-0 cells assessed as cell growth inhibition at 10 uM incubated for 48 hrs by sulforhodamine B assay; format: functional; conditions: read-out: GI
[37] = test system: A498; test: Antitumor activity against human A498 cells assessed as cell growth inhibition at 10 uM incubated for 48 hrs by sulforhodamine B assay; format: functional; conditions: read-out: GI
[38] = test system: ACHN; test: Antitumor activity against human ACHN cells assessed as cell growth inhibition at 10 uM incubated for 48 hrs by sulforhodamine B assay; format: functional; conditions: read-out: GI
[39] = test system: RXF 393; test: Antitumor activity against human RXF 393 cells assessed as cell growth inhibition at 10 uM incubated for 48 hrs by sulforhodamine B assay; format: functional; conditions: read-out: GI
[40] = test system: SN12C; test: Antitumor activity against human SN12C cells assessed as cell growth inhibition at 10 uM incubated for 48 hrs by sulforhodamine B assay; format: functional; conditions: read-out: GI
[41] = test system: UO-31; test: Antitumor activity against human UO-31 cells assessed as cell growth inhibition at 10 uM incubated for 48 hrs by sulforhodamine B assay; format: functional; conditions: read-out: GI
[42] = test system: PC-3; test: Antitumor activity against human PC-3 cells assessed as cell growth inhibition at 10 uM incubated for 48 hrs by sulforhodamine B assay; format: functional; conditions: read-out: GI
[43] = test system: MCF7; test: Antitumor activity against human MCF7 cells assessed as cell growth inhibition at 10 uM incubated for 48 hrs by sulforhodamine B assay; format: functional; conditions: read-out: GI
[44] = test system: MDA-MB-231; test: Antitumor activity against human MDA-MB-231/ATCC cells assessed as cell growth inhibition at 10 uM incubated for 48 hrs by sulforhodamine B assay; format: functional; conditions: read-out: GI
[45] = test system: Hs-578T; test: Antitumor activity against human HS 578T cells assessed as cell growth inhibition at 10 uM incubated for 48 hrs by sulforhodamine B assay; format: functional; conditions: read-out: GI
[46] = test system: BT-549; test: Antitumor activity against human BT-549 cells assessed as cell growth inhibition at 10 uM incubated for 48 hrs by sulforhodamine B assay; format: functional; conditions: read-out: GI
[47] = test system: MDA-MB-468; test: Antitumor activity against human MDA-MB-468 cells assessed as cell growth inhibition at 10 uM incubated for 48 hrs by sulforhodamine B assay; format: functional; conditions: read-out: GI
[48] = test system: SW-620; test: Antitumor activity against human SW620 cells assessed as cell growth inhibition at 10 uM incubated for 48 hrs by sulforhodamine B assay; conditions: SW-620, 48 h, read-out: GI

SMILES: O=Cc1ccc(-c2nc3c([nH]2)-c2cccc4cccc-3c24)cc1
- inhibition of growth at 10 µM [1]: 11.1%
- inhibition of growth at 10 µM [2]: < 10%
- inhibition of growth at 10 µM [3]: 16.5%
- inhibition of growth at 10 µM [4]: 20.5%
- inhibition of growth at 10 µM [5]: 22.8%
- inhibition of growth at 10 µM [6]: 16%
- inhibition of growth at 10 µM [7]: 23%
- inhibition of growth at 10 µM [8]: 14%
- inhibition of growth at 10 µM [9]: 12.4%
- inhibition of growth at 10 µM [10]: 14.9%
- inhibition of growth at 10 µM [11]: 23.6%
- inhibition of growth at 10 µM [12]: < 10%
- inhibition of growth at 10 µM [13]: < 10%
- inhibition of growth at 10 µM [14]: 12.8%
- inhibition of growth at 10 µM [15]: 19.2%
- inhibition of growth at 10 µM [16]: 23.7%
- inhibition of growth at 10 µM [17]: < 10%
- inhibition of growth at 10 µM [18]: 13%
- inhibition of growth at 10 µM [19]: 13.3%
- inhibition of growth at 10 µM [20]: < 10%
- inhibition of growth at 10 µM [21]: < 10%
- inhibition of growth at 10 µM [22]: < 10%
- inhibition of growth at 10 µM [23]: < 10%
- inhibition of growth at 10 µM [24]: 25.8%
- inhibition of growth at 10 µM [25]: < 10%
- inhibition of growth at 10 µM [26]: < 10%
- inhibition of growth at 10 µM [27]: < 10%
- inhibition of growth at 10 µM [28]: < 10%
- inhibition of growth at 10 µM [29]: 19.8%
- inhibition of growth at 10 µM [30]: 28.9%
- inhibition of growth at 10 µM [31]: 12.3%
- inhibition of growth at 10 µM [32]: 27.4%
- inhibition of growth at 10 µM [33]: < 10%
- inhibition of growth at 10 µM [34]: < 10%
- inhibition of growth at 10 µM [35]: < 10%
- inhibition of growth at 10 µM [36]: < 10%
- inhibition of growth at 10 µM [37]: < 10%
- inhibition of growth at 10 µM [38]: < 10%
- inhibition of growth at 10 µM [39]: < 10%
- inhibition of growth at 10 µM [40]: < 10%
- inhibition of growth at 10 µM [41]: 33.4%
- inhibition of growth at 10 µM [42]: 21.1%
- inhibition of growth at 10 µM [43]: 51.6%
- inhibition of growth at 10 µM [44]: 25.6%
- inhibition of growth at 10 µM [45]: < 10%
- inhibition of growth at 10 µM [46]: < 10%
- inhibition of growth at 10 µM [47]: 30.9%
- inhibition of growth at 10 µM [48]: < 10%
